# From patent publication US9005575B2, “Arg-Gly-Asp-conjugated alpha-melanocyte stimulating hormone hybrid peptide for use in diagnosing and treating melanoma, including metastatic melanoma and methods related to same” (STC.UNM, priority 2009, dated 2015)
# Where two headings read alike, the source gives them in different places. Positions of bridges follow the written chain, without caps; N, C: chain ends. Non-standard residues stand in square brackets, D forms with d. Residues, ends and D or L forms follow the SMILES beside them.
# Assay: Biodistribution in B16/F1 melanoma-bearing C57 mice
# Format: in vivo
# Settings: female, C57, mouse, iv, total radioactivity; for tissue uptake dose at 0.5 h / tissue uptake at 0.5 h: 0.5 h post-injection; for tissue uptake dose at 4 h / tissue uptake at 4 h: 4 h post-injection; for tissue uptake dose at 24 h / tissue uptake at 24 h: 24 h post-injection
# Experimental: All the animal studies were conducted in compliance with Institutional Animal Care and Use Committee approval. The pharmacokinetics of ^99mTc-RGD-Lys-(Arg^11)CCMSH was determined in B16/F1 melanoma-bearing C57 female mice (Harlan, Indianapolis, Ind.). C57 mice were subcutaneously inoculated on the right flank with 1×10^6 B16/F1 cells. The weight of tumors reached approximately 0.2 g 10 days post cell inoculation. Each melanoma-bearing mouse was injected with 0.037 MBq of ^99mTc-RGD-Lys-(Arg^11)CCMSH via the tail vein. Groups of 5 mice were sacrificed at 0.5, 2, 4 and 24 h post-injection, and tumors and organs of interest were harvested, weighed and counted. Blood values were taken as 6.5% of the whole-body weight. The MC1 receptor specificity of the tumor uptake was determined at 2 h post-injection by co-injecting ^99mTc-RGD-Lys-(Arg^11)CCMSH with 10 μg (6.1 nmol) of unlabeled NDP-MSH, a linear α-MSH peptide analogue with picomolar affinity for the MC1 receptors present on murine melanoma cells. The co-injection of 3.5 μg (6.1 nmol) of RGD peptide was performed to determine the αvβ3 integrin specificity of the tumor uptake 2 h post-injection. Statistical analysis was performed using the Student's t-test for unpaired data.
# All the animal studies were conducted in compliance with Institutional Animal Care and Use Committee approval. The pharmacokinetics of ^99mTc-RGD-Arg-(Arg^11)CCMSH was determined in B16/F1 melanoma-bearing C57 female mice (Harlan, Indianapolis, Ind.). C57 mice were subcutaneously inoculated on the right flank with 1×10^6 B16/F1 cells. The weight of tumors reached approximately 0.2 g 10 days post cell inoculation. Each melanoma-bearing mouse was injected with 0.037 MBq of ^99mTc-RGD-Arg-(Arg^11)CCMSH via the tail vein. Groups of 5 mice were sacrificed at 0.5, 2, 4 and 24 h post-injection, and tumors and organs of interest were harvested, weighed and counted. Blood values were taken as 6.5% of the whole-body weight. The MC1 receptor specificity of the tumor uptake was determined at 2 h post-injection by co-injecting ^99mTc-RGD-Arg-(Arg^11)CCMSH with 10 μg (6.1 nmol) of unlabeled NDP-MSH. The co-injection of 3.5 μg (6.1 nmol) of RGD peptide was performed to determine the αvβ3 integrin specificity of the tumor uptake at 2 h post-injection.
# [1] = bladder, 0.037 MBq, read-out: Bladder, Percentage Injected Dose
# [2] = blood, 0.037 MBq, read-out: Blood, Percentage Injected Dose/gram
# [3] = bone, 0.037 MBq, read-out: Bone, Percentage Injected Dose/gram
# [4] = brain, 0.037 MBq, read-out: Brain, Percentage Injected Dose/gram
# [5] = heart, 0.037 MBq, read-out: Heart, Percentage Injected Dose/gram
# [6] = intestines, 0.037 MBq, read-out: Intestines, Percentage Injected Dose
# [7] = kidneys, 0.037 MBq, read-out: Kidneys, Percentage Injected Dose/gram
# [8] = liver, 0.037 MBq, read-out: Liver, Percentage Injected Dose/gram
# [9] = lung, 0.037 MBq, read-out: Lung, Percentage Injected Dose/gram
# [10] = muscle, 0.037 MBq, read-out: Muscle, Percentage Injected Dose/gram
structure (smiles),measurement,setting,value
"CC(C)[C@H](NC(=O)[C@@H]1CCCN1C(=O)[C@H](CCCNC(=N)N)NC(=O)[C@H](CS)NC(=O)[C@H](Cc1c[nH]c2ccccc12)NC(=O)[C@H](CCCNC(=N)N)NC(=O)[C@@H](Cc1ccccc1)NC(=O)[C@H](Cc1c[nH]cn1)NC(=O)[C@H](CCC(=O)O)NC(=O)[C@H](CS)NC(=O)[C@H](CS)NC(=O)[C@H](CCCCN)NC(=O)[C@@H]1CC(=O)N[C@@H](CCCNC(=N)N)C(=O)NCC(=O)N[C@@H](CC(=O)O)C(=O)N[C@H](Cc2ccc(O)cc2)C(=O)N1)C(N)=O [^99mTc-RGD-Lys-(Arg^11)CCMSH, metal not drawn] (RGD[dY]DKCCEH[dF]RWCRPV-NH2; lactam N-5)",dose excreted at 2 h,"bladder (urine), 0.037 MBq, 2 h post-injection, read-out: Bladder, Percentage Injected Dose (cleared through the urinary system)",62.3 ± 8.16%
same,tissue uptake dose at 0.5 h,[1],46.9 ± 2.54 %ID
same,tissue uptake dose at 4 h,[1],68.7 ± 2.06 %ID
same,tissue uptake dose at 24 h,[1],78.2 ± 5.29 %ID
same,tissue uptake dose at 2 h,"bladder, 2 h post-injection, NDP blockade (10 μg NDP-MSH co-injected), read-out: Bladder, Percentage Injected Dose",75.9 ± 1.75 %ID
same,tissue uptake dose at 2 h,"bladder, 2 h post-injection, RGD blockade (3.5 μg RGD co-injected), read-out: Bladder, Percentage Injected Dose",75.1 ± 3.69 %ID
same,tissue uptake at 0.5 h,[2],3.18 ± 0.51 %ID/g
same,tissue uptake at 2 h,"blood, 0.037 MBq, 2 h post-injection, read-out: Blood, Percentage Injected Dose/gram",0.96 ± 0.87 %ID/g
same,tissue uptake at 4 h,[2],0.5 ± 0.27 %ID/g
same,tissue uptake at 24 h,[2],0.11 ± 0.07 %ID/g
same,tissue uptake at 2 h,"blood, 2 h post-injection, NDP blockade (10 μg NDP-MSH co-injected), read-out: Blood, Percentage Injected Dose/gram",0.32 ± 0.34 %ID/g
same,tissue uptake at 2 h,"blood, 2 h post-injection, RGD blockade (3.5 μg RGD co-injected), read-out: Blood, Percentage Injected Dose/gram",0.53 ± 0.17 %ID/g
same,tissue uptake at 0.5 h,[3],1.53 ± 0.75 %ID/g
same,tissue uptake at 2 h,"bone, 0.037 MBq, 2 h post-injection, read-out: Bone, Percentage Injected Dose/gram",1.05 ± 0.31 %ID/g
same,tissue uptake at 4 h,[3],0.98 ± 0.67 %ID/g
same,tissue uptake at 24 h,[3],0.71 ± 0.39 %ID/g
same,tissue uptake at 2 h,"bone, 2 h post-injection, NDP blockade (10 μg NDP-MSH co-injected), read-out: Bone, Percentage Injected Dose/gram",0.78 ± 0.65 %ID/g
same,tissue uptake at 2 h,"bone, 2 h post-injection, RGD blockade (3.5 μg RGD co-injected), read-out: Bone, Percentage Injected Dose/gram",0.37 ± 0.42 %ID/g
same,tissue uptake at 0.5 h,[4],0.13 ± 0.03 %ID/g
same,tissue uptake at 2 h,"brain, 0.037 MBq, 2 h post-injection, read-out: Brain, Percentage Injected Dose/gram",0.12 ± 0.03 %ID/g
same,tissue uptake at 4 h,[4],0.07 ± 0.04 %ID/g
same,tissue uptake at 24 h,[4],0.06 ± 0.01 %ID/g
same,tissue uptake at 2 h,"brain, 2 h post-injection, NDP blockade (10 μg NDP-MSH co-injected), read-out: Brain, Percentage Injected Dose/gram",0.06 ± 0.02 %ID/g
same,tissue uptake at 2 h,"brain, 2 h post-injection, RGD blockade (3.5 μg RGD co-injected), read-out: Brain, Percentage Injected Dose/gram",0.03 ± 0.01 %ID/g
same,tissue uptake at 0.5 h,[5],2.1 ± 0.41 %ID/g
same,tissue uptake at 2 h,"heart, 0.037 MBq, 2 h post-injection, read-out: Heart, Percentage Injected Dose/gram",0.85 ± 0.16 %ID/g
same,tissue uptake at 4 h,[5],0.62 ± 0.31 %ID/g
same,tissue uptake at 24 h,[5],0.39 ± 0.14 %ID/g
same,tissue uptake at 2 h,"heart, with RGD peptide, 3.5 μg (6.1 nmol) co-injected, 2 h post-injection, RGD blockade (3.5 μg RGD co-injected), read-out: Heart, Percentage Injected Dose/gram",0.37 ± 0.23 %ID/g
same,tissue uptake at 2 h,"heart, with unlabeled NDP-MSH, 10 μg (6.1 nmol) co-injected, 2 h post-injection, NDP blockade (10 μg NDP-MSH co-injected), read-out: Heart, Percentage Injected Dose/gram",0.47 ± 0.18 %ID/g
same,tissue uptake dose at 0.5 h,[6],3.27 ± 0.13 %ID
same,tissue uptake dose at 2 h,"intestines, 0.037 MBq, 2 h post-injection, read-out: Intestines, Percentage Injected Dose",3.14 ± 1.2 %ID
same,tissue uptake dose at 4 h,[6],2.95 ± 0.62 %ID
same,tissue uptake dose at 24 h,[6],1.13 ± 0.18 %ID
same,tissue uptake dose at 2 h,"intestines, 2 h post-injection, NDP blockade (10 μg NDP-MSH co-injected), read-out: Intestines, Percentage Injected Dose",1.97 ± 0.17 %ID
same,tissue uptake dose at 2 h,"intestines, 2 h post-injection, RGD blockade (3.5 μg RGD co-injected), read-out: Intestines, Percentage Injected Dose",1.88 ± 0.16 %ID
same,tissue uptake at 0.5 h,[7],69.4 ± 5.37 %ID/g
same,tissue uptake at 2 h,"kidneys, 0.037 MBq, 2 h post-injection, read-out: Kidneys, Percentage Injected Dose/gram",67.1 ± 8.79 %ID/g
same,tissue uptake at 4 h,[7],68.3 ± 14.3 %ID/g
same,tissue uptake at 24 h,[7],40.3 ± 10.8 %ID/g
same,tissue uptake at 2 h,"kidneys, 2 h post-injection, NDP blockade (10 μg NDP-MSH co-injected), read-out: Kidneys, Percentage Injected Dose/gram",59.5 ± 9.98 %ID/g
same,tissue uptake at 2 h,"kidneys, 2 h post-injection, RGD blockade (3.5 μg RGD co-injected), read-out: Kidneys, Percentage Injected Dose/gram",54.2 ± 15.1 %ID/g
same,tissue uptake at 0.5 h,[8],4.02 ± 0.42 %ID/g
same,tissue uptake at 2 h,"liver, 0.037 MBq, 2 h post-injection, read-out: Liver, Percentage Injected Dose/gram",3.17 ± 1.43 %ID/g
same,tissue uptake at 4 h,[8],2.91 ± 0.8 %ID/g
same,tissue uptake at 24 h,[8],1.73 ± 0.33 %ID/g
same,tissue uptake at 2 h,"liver, 2 h post-injection, NDP blockade (10 μg NDP-MSH co-injected), read-out: Liver, Percentage Injected Dose/gram",2.89 ± 0.25 %ID/g
same,tissue uptake at 2 h,"liver, 2 h post-injection, RGD blockade (3.5 μg RGD co-injected), read-out: Liver, Percentage Injected Dose/gram",2.27 ± 0.23 %ID/g
same,tissue uptake at 0.5 h,[9],5.31 ± 0.53 %ID/g
same,tissue uptake at 2 h,"lung, 0.037 MBq, 2 h post-injection, read-out: Lung, Percentage Injected Dose/gram",1.26 ± 0.32 %ID/g
same,tissue uptake at 4 h,[9],1.07 ± 0.42 %ID/g
same,tissue uptake at 24 h,[9],0.94 ± 0.45 %ID/g
same,tissue uptake at 2 h,"lung, 2 h post-injection, NDP blockade (10 μg NDP-MSH co-injected), read-out: Lung, Percentage Injected Dose/gram",1.31 ± 0.47 %ID/g
same,tissue uptake at 2 h,"lung, 2 h post-injection, RGD blockade (3.5 μg RGD co-injected), read-out: Lung, Percentage Injected Dose/gram",1.12 ± 0.1 %ID/g
same,tissue uptake at 0.5 h,[10],0.38 ± 0.17 %ID/g
same,tissue uptake at 2 h,"muscle, 0.037 MBq, 2 h post-injection, read-out: Muscle, Percentage Injected Dose/gram",0.34 ± 0.29 %ID/g
same,tissue uptake at 4 h,[10],0.13 ± 0.07 %ID/g
same,tissue uptake at 24 h,[10],0.23 ± 0.19 %ID/g
same,tissue uptake at 2 h,"muscle, 2 h post-injection, NDP blockade (10 μg NDP-MSH co-injected), read-out: Muscle, Percentage Injected Dose/gram",0.21 ± 0.12 %ID/g
same,tissue uptake at 2 h,"muscle, 2 h post-injection, RGD blockade (3.5 μg RGD co-injected), read-out: Muscle, Percentage Injected Dose/gram",0.15 ± 0.06 %ID/g
